According to PMC7619385 (ACS infectious diseases, 2025):

How the values were obtained:
NLuc::LmxCLK1 = NLuc::LmxCLK1 (Leishmania mexicana, UniProt E9AMP2); experiment: In-cell BRET target engagement in intracellular amastigotes expressing NLuc::LmxCLK1; type: cell-based
Procedure: L. mexicana (strain MNYC/BZ/62/M379) promastigotes were cultivated in medium 199 (M199) (Earle’s Salts - Gibco) supplemented with 10% (v/v) heat-inactivated fetal calf serum (HIFCS – Cultilab) and 1% Penicillin/Streptomycin solution (Sigma-Aldrich) at 26 °C. Phenotypic drug response assays in null mutant and point-mutation mutant lines were performed in HOMEM supplemented with 10% (v/v) heat-inactivated fetal calf serum (HIFCS – Gibco). THP-1 monocytes were differentiated in adherent macrophages with 50 ng of PMA for 72 h at 37 °C and 5% CO2 before infection with stationary phase promastigotes (ratio 10 promastigotes:1 macrophage) for 6 h, followed by washing to remove non-internalized Leishmania. Infected macrophages were incubated at 34 °C and 5% CO2 for 48 h in RPMI (Gibco) supplemented with 10% HIFCS and 1% Penicillin/Streptomycin solution.
in vitro BRET used purified NLuc-LmxCLK1 in Kinase Buffer (50 mM HEPES, 1 mM EGTA, 10 mM MgCl^2, 2 mM DTT and 0.01% Tween-20) aliquoted into 96-well plates (Greiner #655904). In cell BRET assays used engineered L. mexicana (promastigotes or intramacrophage amastigotes) expressing NLuc-LmxCLK1 in cell media aliquoted into 96-well plates (Greiner, #655083). For tracer titration experiments, BRET probes were serially diluted from 100% DMSO stocks – first in 100% DMSO to 100x final assay concentration, and then in Tracer Dilution Buffer (TDB - 12.5 mM HEPES, pH 7.5; 31.25% PEG 400) to 20x the final assay concentration. Serially diluted probes (5 µL) were added to 85 µL of cells in culture media or 85 µL of purified protein. Final well volumes were adjusted to 100 µL with sterile Opti-MEM™ I Reduced Serum Medium (Thermo-Scientific) – for wells containing cells; or Kinase Buffer - for wells containing purified protein. For tracer displacement assays, samples were prepared as above, but final volume was brought to 100 µL by addition of vehicle or serially-diluted test compounds. Final DMSO concentration in these assays was 1%. Plates were incubated for 30 min at 25 °C (purified protein and promastigotes) or 34 °C (intramacrophage amastigotes), and 50 µL of Promega cocktail containing furimazine and NLuc extracellular inhibitor (catalog #N2161) were added to each well. Light emissions at 460+10 nm (BRET donor) and at 610+20 nm (BRET acceptor) were sequentially recorded (integration time = 0.5 s, gain = 3600) using a luminometer (BMG LABTECH Clariostar or Biotek Synergy HT). BRET values are reported in milli-BRET (mBRET) units (mBU), obtained by dividing the acceptor luminescence by the donor luminescence and multiplying the result by a factor of 1,000. BRET values were converted to blank-corrected probe occupancies (%) according to equation [1]: (1) Probeoccupancy(%)=X−Z/Y−Z×100 where X = mBRET value in the presence of the test compound and the probe, Y = mBRET value in the presence of probe only, and Z = mBRET value in the absence of probe and test compound.

LmxCLK1 = molecular target: T1, LmxCLK1 (Leishmania mexicana, UniProt E9AMP2); experiment: Intact mass LC-MS for covalent adduct formation; type: binding; conditions: 2 h incubation at room temperature, inhibitor:protein 3:1
T1 sequence (E9AMP2 1-422): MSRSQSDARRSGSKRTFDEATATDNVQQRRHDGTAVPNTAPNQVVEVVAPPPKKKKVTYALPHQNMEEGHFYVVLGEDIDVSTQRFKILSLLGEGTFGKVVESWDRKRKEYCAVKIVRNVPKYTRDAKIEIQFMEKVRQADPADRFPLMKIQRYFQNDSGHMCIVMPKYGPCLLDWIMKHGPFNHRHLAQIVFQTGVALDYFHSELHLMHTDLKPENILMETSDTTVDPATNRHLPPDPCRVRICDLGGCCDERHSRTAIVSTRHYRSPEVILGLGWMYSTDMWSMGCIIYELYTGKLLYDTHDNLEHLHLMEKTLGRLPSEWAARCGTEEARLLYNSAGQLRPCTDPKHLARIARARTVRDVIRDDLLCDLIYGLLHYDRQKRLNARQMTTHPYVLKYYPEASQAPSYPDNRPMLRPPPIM
Procedure: Samples were analyzed by LC-ESI-MS in a XEVO G2 Sx Q-ToF (Waters) at LACTAD-UNICAMP, Brazil. […]
where background is the background fluorescence obtained in the absence of enzyme (blank).
To determine IC50 values, the background-corrected HTRF ratio was plotted as a function of test compound concentration, and the data were fitted to the sigmoidal dose-response (variable slope) equation [2] available in GraphPad Prism (v. 9.1.0):
Signal ratio (665/620) = Plateau + Plateau)(* − Plateau’())($ [2] […]
where Hill = Hill slope describing the steepness of the curve and x = test compound concentration.
To obtain normalized enzymatic activity we used the background corrected HTRF ratio of enzymatic […]
and 0% enzyme activity, respectively.
To establish the contribution of compound pre-incubation to the IC50 assay, we pre-incubated WZ8040 with LmxCLK1 for 5, 10, 15 and 30 minutes at room temperature, prior to starting the phosphorylation reaction by adding ATP and the peptide substrate. The enzymatic reactions were carried following the procedures described above.
For fitting of kinact and KI values from endpoint pre-incubation IC50 data, we used the equation [3], first described by Krippendorff and colleagues:7 […]
IC"&(t) = k. […]
(CQMED clone ID LmxCLK1-cb001) and the two covalent inhibitors WZ8040 and WZ3146. […] Samples were analyzed by LC-ESI-MS in a XEVO G2 Sx Q-ToF (Waters) at LACTAD-UNICAMP, Brazil. […]

Row | Structure (SMILES) | IC50 (NLuc::LmxCLK1) [µM] | Lower potency in intracellular amastigotes (NLuc::LmxCLK1; tracer displacement, versus promastigotes) | Covalent adduct formation with purified LmxCLK1 (LmxCLK1)
1 | Cc1ccc(C(=O)Nc2ccc(CN3CCN(C)CC3)c(C(F)(F)F)c2)cc1C#Cc1cnc2[nH]ncc2c1 [GZD824] | 13 | ~ 3 fold | 
2 | C=CC(=O)Nc1cccc(Sc2nc(Nc3ccc(N4CCN(C)CC4)cc3)ncc2Cl)c1 [WZ8040] | 7 |  | formation of covalent adducts
3 | C=CC(=O)Nc1cccc(Oc2nc(Nc3ccc(N4CCN(C)CC4)cc3)ncc2Cl)c1 [WZ3146] |  |  | formation of covalent adducts
